System: cells which do not express the β2-adrenergic receptor (wild type)
Assay: melanophore pigment dispersion assay, wild type cells
Format: cell-based, frog
Details: wild type melanophores, two successive tests

Structure (SMILES): CC(C)(C)NCC(O)c1ccc(O)c(CO)c1 (stereo not shown) [salbutamol]
- response of cells to challenge: did not respond

Source: patent US20030008331A1, “Directed evolution biosensors” (priority 1998, published 2003)
